Measured values as given in publication PMC12501029, “Discovery of a CNS active GSK3 degrader using orthogonally reactive linker screening” (Nature Communications, 2025).

Columns and labels:
GSK3 = test: Mode of action rescue studies in HEK293 cells (pre-treatment with MG132, MLN4924 or GSK3 inhibitor 29); format: cell-based, human; settings: 2 h pre-treatment, 1 µM each inhibitor
Protocol: HEK293, HAP1, HAP1 CRBN KO and SH-SY5Y cells were plated in either 6 cm plates or 6-well plates at varying densities (0.5–0.7 × 10^6 cells per plate or wells), and MEF cells were plated in 10 cm plates (1–1.2 × 10^6 cells per plate) depending on experimental set up in respective culturing condition as described above. Stock solutions of compounds were prepared as 10 mM in DMSO (Sigma–Aldrich). Working dilutions were made up fresh in DMSO and culturing media or differentiation media was refreshed prior to any compound treatments. For mode of action studies, cells were pre-treated with inhibitors for 2 h: 1 µM MG132 (Merck, 474790-5 mg), 1 µM MLN4924 (Merck, 5054770001) or 1 µM GSK3 inhibitor (compound 29), before treating with PROTACs for 2, 4 or 24 h as indicated in figure legends. Cells were washed twice with ice-cold PBS (Gibco), harvested in PBS and pelleted, cells were resuspended in RIPA buffer supplemented with complete EDTA-free protease inhibitor cocktail (Roche,11873580001, 1/10 mL) and phosSTOP (Roche, 04906845001, 1 tablet/10 mL) for 20 min lysis on ice then cleared via centrifugation at 16,000 × g, 4 °C for 20 min. […] Following clearance of lysates, protein concentrations were determined by the BCA assay (Fisher Scientific, 23225) or Bradford assay (Bio-rad). […]

[1] = Plasma protein binding, equilibrium dialysis, mouse; format: in vitro ADME; settings: female, CD1, mouse
Protocol: (§1) A 96-well equilibrium dialysis apparatus was used to determine the free fraction in plasma for each compound (HT Dialysis LLC, Gales Ferry, CT). Membranes (12–14 kDA cut-off) were conditioned in deionised water for 60 min, followed by conditioning in 80:20 deionised water: ethanol for 20 min, and then rinsed in isotonic buffer before use. Female CD1 mouse, Male rat Han Wistar and human plasma was removed from the freezer and allowed to thaw on the day of experiment. Thawed plasma was then centrifuged (Allegra X12-R, Beckman Coulter, USA), spiked with test compound (final concentration 10 μg/mL), and 150 μL aliquots (n = 6 replicate determinations) loaded into the 96-well equilibrium dialysis plate. Dialysis vs isotonic buffer (150 μL) was carried out for 5 h in a temperature-controlled incubator at ca. 37 °C (Barworld Scientific Ltd, UK) using an orbital microplate shaker at 100 revolutions/minute (Barworld Scientific Ltd, UK). At the end of the incubation period, 50 μL aliquots of plasma or buffer were transferred to a 96-well 2.1 mL Waters ^TM plate and the composition in each well balanced with control fluid (50 μL), such that the volume of buffer to plasma is the same. Sample extraction was performed by the addition of 200 μL of acetonitrile containing an appropriate internal standard. Samples were allowed to mix for 1 min and then centrifuged at 3000 rpm in 96-well blocks for 15 min (Allegra X12-R, Beckman Coulter, USA), after which 150 μL of supernatant was removed to 50 μL of water. All samples were analysed by UPLC-MS/MS. The unbound fraction was determined as the ratio of the peak area in buffer to that in plasma.

[2] = Plasma protein binding, equilibrium dialysis, human; format: in vitro ADME; settings: 5 h dialysis, read-out: Plasma Protein Binding (Fu) Hu
Protocol: as §1, with “Sample extraction was performed by the addition of 200 μL of acetonitrile containing an appropriate internal standard. Samples were allowed to mix for 1 min and then centrifuged at 3000 rpm in 96-well blocks for 15 min (Allegra X12-R, Beckman Coulter, USA), after which 150 μL of supernatant was removed to 50 μL of water.” left out

[3] = 10 μg/mL, 5 h dialysis, read-out: Plasma Protein Binding (Fu) Mu

SMILES: Cn1nc(N2CCC(=O)NC2=O)c2ccc(CN3CCN(Cc4ccc(-c5cn(-c6ccc(-c7cn8nccc(C(=O)Nc9cnccc9N9CCOCC9)c8n7)cc6)nn5)nc4)CC3)cc21 [compound 24]
- GSK3 degradation in presence of MG132, MLN4924 or GSK3 inhibitor 29 (GSK3): rescued
- fraction unbound at 5 h, 10 μg/mL [1, 3]: 0.0052
- fraction unbound at 5 h, 10 μg/mL ([1]; equilibrium dialysis, read-out: unbound fraction in mouse plasma): 0.005
- fraction unbound at 5 h, 10 μg/mL [2]: 0.0072

SMILES: Cn1nc(N2CCC(=O)NC2=O)c2ccc(CN3CCN(CCCc4cn(-c5ccc(-c6cn7nccc(C(=O)Nc8cnccc8N8CCOCC8)c7n6)cc5)nn4)CC3)cc21 [compound 26]
- GSK3 degradation in presence of MG132, MLN4924 or GSK3 inhibitor 29 (GSK3): rescued
- fraction unbound at 5 h, 10 μg/mL [1, 3]: 0.021
- fraction unbound at 5 h, 10 μg/mL [2]: 0.05
